The values that follow come from PubChem BioAssay (NCI).

Molecules are shown by their SMILES.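 Method: 48-hour compound exposure of cells in 96-well plates, five concentrations, linear interpolation of endpoints. The concentration for full growth arrest is given as TGI.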 *1 amine or outer side, *2 acyl side, *3 side chain or, on linkers, in order; H or OH if unused. Where a SMILES comes first, the peptide text is derived from it. Bridges are numbered along the chain shown (N, C = ends). Roman numbers before positions name the chains, in order. [ ]: non-standard residue; d: D form. ξ: configuration not given here. X54 = N=C(N)NCCC[C@@H](NC(=N)CCCCCCC(=N)N[C@H](CCCNC(=N)N)C(=O)[*:2])C(=O)[*:1]; dIgl = N[C@@H](C(=O)O)C1Cc2ccccc2C1; Hyp = O=C(O)[C@@H]1C[C@@H](O)CN1; ξIgl = NC(C(=O)O)C1Cc2ccccc2C1; ξOic = O=C(O)C1CC2CCCCC2N1; ξR = N=C(N)NCCCC(N)C(=O)O; ξP = O=C(O)C1CCCN1; ξS = NC(CO)C(=O)O

Among the test systems are DU-145 prostate; HCT-116 colon; HOP-62 NSCLC; HOP-92 NSCLC; MDA-MB-435; NCI/ADR-RES ovarian; RXF 393 renal; SF-295 CNS; SK-MEL-2 melanoma; SN12C renal; U251 CNS.
Assay in all cases: DTP human tumour cell line panel, 48 h

A word on the TGI: it is the concentration giving total growth inhibition. High values mean less potent growth arrest, low ones more potent growth arrest. With `C=C(C)[C@@H](O)[C@H](O)C[C@H](C)C1CC[C@]2(C)C1=CC[C@@H]1[C@@]3(C)CC[C@@H](OC(C)=O)C(C)(C)[C@@H]3C[C@@H](OC3OC(COC(C)=O)C(O)C(O)C3O)[C@]12C` (stereo not given in full), the TGI with DU-145 prostate turned out to be 11.1 µM; with HCT-116 colon it was 5.88 µM; in the assay with HOP-62 NSCLC, 10.1 µM; in the assay on HOP-92 NSCLC it was 6.17 µM; with MDA-MB-435, 4.42 µM; with NCI/ADR-RES ovarian, 32 µM. Besides, the TGI in the assay on RXF 393 renal turned out to be 4.49 µM; in the assay on SF-295 CNS, 4.69 µM; with SK-MEL-2 melanoma it was 3.63 µM; with SN12C renal it was 11.3 µM; with U251 CNS it was 5.86 µM.
On to `Oc1c(CN2CCCC2)ccc2cccnc12`, for which the TGI with DU-145 prostate was greater than 100 µM; with HCT-116 colon, greater than 100 µM; in the assay on HOP-62 NSCLC, greater than 65.8 µM; in the assay with HOP-92 NSCLC, greater than 100 µM; with MDA-MB-435, greater than 100 µM; in the assay with NCI/ADR-RES ovarian, 8.23 µM. The TGI in the assay on RXF 393 renal was greater than 100 µM; in the assay on SF-295 CNS, greater than 100 µM; with SK-MEL-2 melanoma, greater than 95.6 µM; with SN12C renal, greater than 83.5 µM; in the assay with U251 CNS, greater than 100 µM.
As to `CC(C)C(Nc1ncnc2nc[nH]c12)C(=O)O` (stereo not given), the TGI in the assay with DU-145 prostate, in the assay with HCT-116 colon, with HOP-62 NSCLC, with HOP-92 NSCLC, in the assay with MDA-MB-435 and with NCI/ADR-RES ovarian was greater than 100 µM in each case. Besides, the TGI in the assay with RXF 393 renal, with SF-295 CNS, in the assay with SK-MEL-2 melanoma, in the assay on SN12C renal and with U251 CNS was greater than 100 µM in each case.
With `O=C1/C(=C/c2ccc(O)cc2)CCCC1CN1CCCCC1` (stereo not given), the TGI in the assay on DU-145 prostate came to 16.6 µM; with HCT-116 colon, 3.22 µM; with HOP-62 NSCLC it was 29.8 µM; with HOP-92 NSCLC, 3.47 µM; in the assay on MDA-MB-435, 21.3 µM; with NCI/ADR-RES ovarian, 29.6 µM. Besides, the TGI with RXF 393 renal came to 27.1 µM; in the assay with SF-295 CNS, 29.9 µM; in the assay with SK-MEL-2 melanoma, 26.9 µM; in the assay with SN12C renal it was 7.05 µM; in the assay with U251 CNS, 22.3 µM.
As for `Cn1c(-c2ccc[se]2)ccc1-c1ccc(C=O)[se]1`, the TGI in the assay on DU-145 prostate was greater than 100 µM; in the assay with HCT-116 colon, greater than 100 µM; in the assay on HOP-62 NSCLC, 35.3 µM; with HOP-92 NSCLC, greater than 82.1 µM; in the assay on MDA-MB-435, greater than 100 µM; in the assay on NCI/ADR-RES ovarian it was 9.13 µM. For the same molecule, the TGI with RXF 393 renal was 7.14 µM; in the assay with SF-295 CNS it was 58.8 µM; in the assay with SK-MEL-2 melanoma, greater than 100 µM; with SN12C renal, greater than 67.9 µM; with U251 CNS it was 25.4 µM.
Consider `Cn1cnc(N2CCCC2)c(C#N)c1=S`, for which the TGI in the assay with DU-145 prostate, with HCT-116 colon, with HOP-62 NSCLC, in the assay with HOP-92 NSCLC, in the assay with MDA-MB-435 and with NCI/ADR-RES ovarian was greater than 100 µM each time. The TGI with RXF 393 renal, in the assay with SF-295 CNS, in the assay on SK-MEL-2 melanoma, in the assay with SN12C renal and in the assay on U251 CNS was greater than 100 µM each time.
For `Cc1nnc(N)nc1/C=C\c1ccc(Cl)cc1Cl`, the TGI with DU-145 prostate was greater than 100 µM; in the assay with HCT-116 colon it was 63.1 µM; with HOP-62 NSCLC it was 36.3 µM; in the assay on HOP-92 NSCLC, greater than 100 µM; in the assay on MDA-MB-435, greater than 100 µM; with NCI/ADR-RES ovarian it was greater than 100 µM. Also, the TGI is greater than 100 µM with RXF 393 renal; 53.8 µM with SF-295 CNS; 32.6 µM with SK-MEL-2 melanoma; greater than 100 µM in the assay on SN12C renal; greater than 100 µM in the assay with U251 CNS.
`O=c1c2c3c(sc2nc2n1N=CN(c1ccccc1)C2)CCCC3`: the TGI in the assay with DU-145 prostate, in the assay with HCT-116 colon, in the assay on HOP-62 NSCLC, in the assay with HOP-92 NSCLC, in the assay on MDA-MB-435 and with NCI/ADR-RES ovarian was greater than 100 µM each time. Further, the TGI in the assay on RXF 393 renal, in the assay with SF-295 CNS, with SK-MEL-2 melanoma, with SN12C renal and with U251 CNS was greater than 100 µM each time.
In the case of `N=C(N)NCCCC(NC(=O)C1CC2CCCCC2N1C(=O)[C@H](NC(=O)C(CO)NC(=O)C(NC(=O)CNC(=O)[C@@H]1C[C@@H](O)CN1C(=O)C1CCCN1C(=O)C(CCCNC(=N)N)NC(=O)[C@@H](CCCNC(=N)N)NC(=N)CCCCCCC(=N)N[C@H](CCCNC(=N)N)C(=O)NC(CCCNC(=N)N)C(=O)N1CCCC1C(=O)N1C[C@H](O)C[C@H]1C(=O)NCC(=O)NC(C(=O)NC(CO)C(=O)N[C@@H](C(=O)N1C(C(=O)NC(CCCNC(=N)N)C(=O)O)CC2CCCCC21)C1Cc2ccccc2C1)C1Cc2ccccc2C1)C1Cc2ccccc2C1)C1Cc2ccccc2C1)C(=O)O` (stereo not given in full) (I: [ξR][ξP][Hyp]G[ξIgl][ξS][dIgl][ξOic][ξR]-OH / II: [ξR][ξP][Hyp]G[ξIgl][ξS][dIgl][ξOic][ξR]-OH; linker I:N-II:N via X54), the TGI with DU-145 prostate was 3.06 µM; with HCT-116 colon it was greater than 10 µM; in the assay on HOP-62 NSCLC it was 5.64 µM; with HOP-92 NSCLC it was 4.71 µM; with MDA-MB-435, 4.18 µM; in the assay on NCI/ADR-RES ovarian, greater than 10 µM. The TGI in the assay with RXF 393 renal was found to be 3.02 µM; with SF-295 CNS, 4.3 µM; in the assay with SK-MEL-2 melanoma, 6.77 µM; in the assay on SN12C renal it was 4.16 µM; with U251 CNS it was 5.35 µM.
Regarding `CC(=O)C1=C(C)O[C@@H]2O[C@H](COCc3ccccc3)[C@@H](OCc3ccccc3)[C@H](O)[C@@H]2S1`, the TGI with DU-145 prostate was found to be 58.9 µM; in the assay with HCT-116 colon, 32 µM; with HOP-62 NSCLC it was 46.2 µM; in the assay with HOP-92 NSCLC it was 44.2 µM; in the assay on MDA-MB-435, 38 µM; in the assay with NCI/ADR-RES ovarian it was 51.6 µM. The TGI is 47.7 µM in the assay on RXF 393 renal; 31.3 µM with SF-295 CNS; 39.1 µM in the assay on SK-MEL-2 melanoma; 37.6 µM in the assay with SN12C renal; 38.5 µM in the assay on U251 CNS.
